In patent US20140371280A1, “Method of treating diabetic peripheral neuropathy through amendment of pre-neuronal diabetic coagulative micro-angiopathy and neuronal deficiency of mitochondrial ATP production, and through induction of neuronal regeneration” (priority 2013, published 2014):

Columns and labels:
platelet aggregation = details: yes/no; cited from earlier work
arterioles = details: yes/no; cited from earlier work
neoangiogenesis = details: yes/no; cited from earlier work
insulin sensitization = details: yes/no; cited from earlier work
[1] = test system: diabetic peripheral neuropathy; assay: Clinical case: diabetic person with DPN of stocking-glove pattern and maceration in the big toe; type: in vivo, human patient
Excerpt: An elderly patient of DPN with advanced DM of hyperglycemia, hypoinsulinemia, and HgbA1C elevated to 7.5%, presented themself with a typical stocking-glove pattern of DPN accompanied by maceration in the left big toe. A bitherapy of SAG+ALC halted their DPN.
The present DPN-relieving invention includes mainly four parts: (1) rescue with SAG-ALC of the tormenting DPN distress of pain, cold sensation, and maceration in the stocking-glove pattern; (2) expansion of the SAG-ALC regimen to include ALA; (3) extended use of the SAG+ALC+ALA principle for prevention of recurrence and maintenance; and (4) an extended use of the principle for induction of neuronal regeneration with SAG+ALC+ALA. • (1) Prompt halt of DPN symptoms with the application of SAG in order to amend the pre-neuronal coagulative microangiopathy and with ALC to amend the neuronal mitochondrial fatty acid transport across the carnithine window so as to help generating ATP through β-oxidation of fatty acids: the SAG+ALC principle. • A person with a 10-year history of DM developed signs and symptoms of DPN of the stocking-glove pattern and maceration in the big toe in the depth. […] The dosage could be 100 to 200 mg three times a day unless contraindicated by hemorrhagic diathesis. They were relieved of the distress but limitedly for 2-3 hours of post-dose. The patient was greatly depressed to learn that neuronal loss that could have already taken place might not be recovered with the SAG (Srinivasan et al. 2000)). • ALC was added at 1500 mg per day. The dosage range could be 500 to 4500 mg per day in the hope of eventual induction of neuronal regeneration (Tagliatela et al. 1991; Ishii et al. 2000). […] Thus, the SAG and ALC appeared to work synergistically. Within 2 months of this combination treatment, the soft swelling due to maceration in the depth of the big toe resolved (FIG. 1e). This ALC-SAG combination therapy may be continued as long as one's DPN status persists. […]

CC1CNc2c(cccc2S(=O)(=O)N[C@@H](CCCNC(=N)N)C(=O)N2CC[C@@H](C)C[C@@H]2C(=O)O)C1 (some centres unmarked) [Novastan, argatroban hydrate]
Anti-platelet Aggregation (platelet aggregation): Yes | Arteriolar dilation (arterioles): Yes | Neo-angiogenesis (neoangiogenesis): No | Insulin-sensitization (insulin sensitization): No

Heparin
Anti-platelet Aggregation (platelet aggregation): Yes | Arteriolar dilation (arterioles): No | Neo-angiogenesis (neoangiogenesis): No | Insulin-sensitization (insulin sensitization): No

CC/C=C\C/C=C\C/C=C\C/C=C\C/C=C\CCCC(=O)OCC [Epadel, ethyl icosapentate]
Anti-platelet Aggregation (platelet aggregation): Yes | Arteriolar dilation (arterioles): Yes | Neo-angiogenesis (neoangiogenesis): No | Insulin-sensitization (insulin sensitization): No

O=C1CCc2cc(OCCCCc3nnnn3C3CCCCC3)ccc2N1 [Pletaal, cilostazol]
Anti-platelet Aggregation (platelet aggregation): Yes | Arteriolar dilation (arterioles): Yes | Neo-angiogenesis (neoangiogenesis): No | Insulin-sensitization (insulin sensitization): No

COc1cccc(CCc2ccccc2OCC(CN(C)C)OC(=O)CCC(=O)O)c1 (centres unmarked) [SAG, sarpogrelate]
Duration of relief of distress post-dose ([1]; SAG 600 mg per day, monotherapy): 2 to 3 h | Duration of halt of DPN's pain and cold intolerance per dose ([1]; each 200 mg dose of SAG, monotherapy): 3 to 4 h | Effect on DPN symptoms (pain, cold sensation, numbness) ([1]; patient, SAG 600 mg, ALC 1500 mg, ALA 600 mg per day, EPR 100 mg three times a day, as combined): appreciably but passingly alleviated | Anti-platelet Aggregation (platelet aggregation): Yes | Arteriolar dilation (arterioles): Yes | Neo-angiogenesis (neoangiogenesis): Yes | Insulin-sensitization (insulin sensitization): Yes
